Laboratory results published in paper PMC7026418, “The kinase polypharmacology landscape of clinical PARP inhibitors” (Scientific Reports, 2020).
Like-named read-outs stand apart in the source and are kept apart here. Each block holds one compound with its values, some of them ahead of it.

Legend:
Experiment in all cases: biochemical
Set-up in all cases: DiscoveRx KINOMEscan active site-directed competition binding; percent of control kinase bound to immobilised ligand
EGFR(L858R) = EGFR(L858R) (Homo sapiens, UniProt P00533, L858R)
Sequence of EGFR(L858R) (P00533 whole entry L858R): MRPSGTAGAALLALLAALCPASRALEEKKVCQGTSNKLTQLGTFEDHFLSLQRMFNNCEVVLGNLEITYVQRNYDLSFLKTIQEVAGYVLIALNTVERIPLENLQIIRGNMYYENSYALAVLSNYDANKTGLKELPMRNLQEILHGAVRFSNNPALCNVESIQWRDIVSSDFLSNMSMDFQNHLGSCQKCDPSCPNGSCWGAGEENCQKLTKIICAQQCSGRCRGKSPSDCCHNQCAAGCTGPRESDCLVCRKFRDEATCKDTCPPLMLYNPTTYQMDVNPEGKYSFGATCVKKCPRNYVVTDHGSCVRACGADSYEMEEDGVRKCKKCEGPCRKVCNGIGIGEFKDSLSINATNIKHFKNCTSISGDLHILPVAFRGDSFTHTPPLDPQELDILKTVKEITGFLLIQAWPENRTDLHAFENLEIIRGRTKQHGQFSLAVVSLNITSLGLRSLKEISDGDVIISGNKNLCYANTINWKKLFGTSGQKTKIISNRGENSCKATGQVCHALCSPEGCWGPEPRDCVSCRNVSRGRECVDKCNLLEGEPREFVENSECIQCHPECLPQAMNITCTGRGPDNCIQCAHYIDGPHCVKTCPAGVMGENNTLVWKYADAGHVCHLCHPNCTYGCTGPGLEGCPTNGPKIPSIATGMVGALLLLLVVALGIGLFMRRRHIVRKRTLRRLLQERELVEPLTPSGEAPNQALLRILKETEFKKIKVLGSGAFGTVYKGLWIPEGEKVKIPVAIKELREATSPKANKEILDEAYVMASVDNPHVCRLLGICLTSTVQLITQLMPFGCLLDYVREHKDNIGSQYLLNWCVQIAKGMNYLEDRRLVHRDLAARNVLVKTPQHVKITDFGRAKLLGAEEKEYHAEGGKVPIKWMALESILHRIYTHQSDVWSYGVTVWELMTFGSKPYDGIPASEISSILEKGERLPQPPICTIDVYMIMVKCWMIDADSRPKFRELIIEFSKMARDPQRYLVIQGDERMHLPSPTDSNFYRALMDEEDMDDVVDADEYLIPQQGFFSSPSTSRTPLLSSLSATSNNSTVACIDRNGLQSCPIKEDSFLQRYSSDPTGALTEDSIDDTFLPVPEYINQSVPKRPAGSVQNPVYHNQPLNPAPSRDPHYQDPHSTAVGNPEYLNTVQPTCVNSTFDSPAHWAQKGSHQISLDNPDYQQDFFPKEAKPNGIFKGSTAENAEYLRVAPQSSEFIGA

EPHB3 = biological target: T1, EPHB3 (Homo sapiens, UniProt P54753)
T1 sequence (P54753 1-998): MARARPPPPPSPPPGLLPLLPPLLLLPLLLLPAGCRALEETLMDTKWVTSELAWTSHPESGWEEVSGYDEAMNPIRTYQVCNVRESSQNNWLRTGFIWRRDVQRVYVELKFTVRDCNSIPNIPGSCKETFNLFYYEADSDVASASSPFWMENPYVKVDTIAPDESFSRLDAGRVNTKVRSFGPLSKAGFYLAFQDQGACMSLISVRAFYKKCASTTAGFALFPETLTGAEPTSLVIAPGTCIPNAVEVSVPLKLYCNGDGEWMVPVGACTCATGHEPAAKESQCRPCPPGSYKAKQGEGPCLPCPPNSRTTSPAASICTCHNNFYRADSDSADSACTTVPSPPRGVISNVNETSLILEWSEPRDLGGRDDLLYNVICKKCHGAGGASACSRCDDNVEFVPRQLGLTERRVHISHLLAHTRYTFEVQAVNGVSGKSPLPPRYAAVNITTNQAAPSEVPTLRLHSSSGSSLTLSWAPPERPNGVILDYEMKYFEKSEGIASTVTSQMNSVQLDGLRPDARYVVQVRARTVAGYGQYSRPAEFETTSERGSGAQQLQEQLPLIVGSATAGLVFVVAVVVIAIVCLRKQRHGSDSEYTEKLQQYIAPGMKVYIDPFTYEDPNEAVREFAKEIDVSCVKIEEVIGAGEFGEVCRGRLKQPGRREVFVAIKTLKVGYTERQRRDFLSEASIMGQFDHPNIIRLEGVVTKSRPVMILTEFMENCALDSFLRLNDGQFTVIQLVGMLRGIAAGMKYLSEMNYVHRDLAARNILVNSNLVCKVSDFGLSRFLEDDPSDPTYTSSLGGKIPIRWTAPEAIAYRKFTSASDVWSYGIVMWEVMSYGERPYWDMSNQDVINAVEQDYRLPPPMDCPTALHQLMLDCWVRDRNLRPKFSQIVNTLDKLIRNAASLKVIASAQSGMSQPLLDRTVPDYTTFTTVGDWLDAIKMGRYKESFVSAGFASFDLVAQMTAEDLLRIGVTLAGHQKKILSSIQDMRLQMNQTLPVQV

ICK = biological target: T2, ICK (Homo sapiens, UniProt Q9UPZ9)
T2 construct: gene CILK1
T2 sequence (Q9UPZ9 1-632): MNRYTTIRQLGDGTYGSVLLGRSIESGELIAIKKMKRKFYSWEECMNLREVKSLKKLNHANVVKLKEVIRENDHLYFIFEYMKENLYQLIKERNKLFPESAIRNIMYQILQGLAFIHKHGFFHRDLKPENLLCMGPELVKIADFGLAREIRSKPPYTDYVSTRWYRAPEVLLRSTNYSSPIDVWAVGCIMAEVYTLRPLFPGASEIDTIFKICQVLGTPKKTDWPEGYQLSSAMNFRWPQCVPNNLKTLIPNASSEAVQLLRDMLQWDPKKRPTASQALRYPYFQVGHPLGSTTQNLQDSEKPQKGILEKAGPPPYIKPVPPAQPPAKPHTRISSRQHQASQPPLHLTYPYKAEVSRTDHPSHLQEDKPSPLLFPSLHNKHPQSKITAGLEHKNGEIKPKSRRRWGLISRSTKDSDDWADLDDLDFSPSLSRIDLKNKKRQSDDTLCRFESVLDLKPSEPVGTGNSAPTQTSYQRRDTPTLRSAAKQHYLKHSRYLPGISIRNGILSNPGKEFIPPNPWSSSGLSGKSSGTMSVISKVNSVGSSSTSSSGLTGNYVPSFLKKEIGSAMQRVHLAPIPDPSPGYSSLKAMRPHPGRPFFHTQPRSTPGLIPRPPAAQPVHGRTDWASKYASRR

MYLK2 = MYLK2 (Homo sapiens, UniProt Q9H1R3)
Sequence of MYLK2 (Q9H1R3 whole entry): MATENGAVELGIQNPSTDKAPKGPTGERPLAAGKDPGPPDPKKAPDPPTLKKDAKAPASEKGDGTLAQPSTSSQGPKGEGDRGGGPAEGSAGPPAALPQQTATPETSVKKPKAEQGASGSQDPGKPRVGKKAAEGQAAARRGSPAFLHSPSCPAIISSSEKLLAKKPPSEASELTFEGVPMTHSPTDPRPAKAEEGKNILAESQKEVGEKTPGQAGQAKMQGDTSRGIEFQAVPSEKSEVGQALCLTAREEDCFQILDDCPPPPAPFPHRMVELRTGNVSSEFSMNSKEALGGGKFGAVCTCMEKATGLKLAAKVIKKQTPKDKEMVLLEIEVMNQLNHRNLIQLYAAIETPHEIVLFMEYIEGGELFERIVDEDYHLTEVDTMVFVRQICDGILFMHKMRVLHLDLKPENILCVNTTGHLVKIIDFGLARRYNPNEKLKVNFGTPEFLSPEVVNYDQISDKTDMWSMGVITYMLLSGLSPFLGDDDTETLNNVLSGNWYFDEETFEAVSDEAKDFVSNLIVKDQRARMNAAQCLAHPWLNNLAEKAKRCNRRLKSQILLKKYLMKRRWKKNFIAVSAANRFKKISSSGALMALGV

PIK3CA(E545A) = PIK3CA(E545A) (Homo sapiens, UniProt P42336, E545A)
PIK4CB = biological target: T3, PIK4CB (Homo sapiens, UniProt Q9UBF8)
T3 construct: gene PI4KB
T3 sequence (Q9UBF8 whole entry): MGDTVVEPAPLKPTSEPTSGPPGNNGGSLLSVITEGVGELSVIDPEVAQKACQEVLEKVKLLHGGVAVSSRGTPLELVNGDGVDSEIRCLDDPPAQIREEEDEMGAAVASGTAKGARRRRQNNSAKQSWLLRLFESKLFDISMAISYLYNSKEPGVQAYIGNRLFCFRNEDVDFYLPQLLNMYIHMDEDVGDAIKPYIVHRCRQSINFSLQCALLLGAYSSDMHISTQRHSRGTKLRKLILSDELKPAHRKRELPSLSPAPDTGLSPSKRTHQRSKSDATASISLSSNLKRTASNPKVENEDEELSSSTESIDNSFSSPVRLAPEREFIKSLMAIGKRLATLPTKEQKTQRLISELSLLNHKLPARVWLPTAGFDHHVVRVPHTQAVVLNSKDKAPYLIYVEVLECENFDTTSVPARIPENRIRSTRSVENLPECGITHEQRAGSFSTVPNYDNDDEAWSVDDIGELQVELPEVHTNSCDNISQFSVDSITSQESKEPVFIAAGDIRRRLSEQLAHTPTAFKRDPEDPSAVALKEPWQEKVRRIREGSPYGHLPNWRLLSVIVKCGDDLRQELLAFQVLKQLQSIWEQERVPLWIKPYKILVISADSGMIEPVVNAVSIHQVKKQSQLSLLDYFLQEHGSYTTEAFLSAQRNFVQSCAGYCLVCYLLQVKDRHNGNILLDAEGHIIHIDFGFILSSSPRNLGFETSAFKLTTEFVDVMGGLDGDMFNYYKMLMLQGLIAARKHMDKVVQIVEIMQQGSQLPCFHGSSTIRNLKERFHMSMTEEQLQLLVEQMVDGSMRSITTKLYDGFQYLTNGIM

QSK = biological target: T4, QSK (Homo sapiens, UniProt Q9Y2K2)
T4 construct: gene SIK3
T4 sequence (Q9Y2K2 whole entry): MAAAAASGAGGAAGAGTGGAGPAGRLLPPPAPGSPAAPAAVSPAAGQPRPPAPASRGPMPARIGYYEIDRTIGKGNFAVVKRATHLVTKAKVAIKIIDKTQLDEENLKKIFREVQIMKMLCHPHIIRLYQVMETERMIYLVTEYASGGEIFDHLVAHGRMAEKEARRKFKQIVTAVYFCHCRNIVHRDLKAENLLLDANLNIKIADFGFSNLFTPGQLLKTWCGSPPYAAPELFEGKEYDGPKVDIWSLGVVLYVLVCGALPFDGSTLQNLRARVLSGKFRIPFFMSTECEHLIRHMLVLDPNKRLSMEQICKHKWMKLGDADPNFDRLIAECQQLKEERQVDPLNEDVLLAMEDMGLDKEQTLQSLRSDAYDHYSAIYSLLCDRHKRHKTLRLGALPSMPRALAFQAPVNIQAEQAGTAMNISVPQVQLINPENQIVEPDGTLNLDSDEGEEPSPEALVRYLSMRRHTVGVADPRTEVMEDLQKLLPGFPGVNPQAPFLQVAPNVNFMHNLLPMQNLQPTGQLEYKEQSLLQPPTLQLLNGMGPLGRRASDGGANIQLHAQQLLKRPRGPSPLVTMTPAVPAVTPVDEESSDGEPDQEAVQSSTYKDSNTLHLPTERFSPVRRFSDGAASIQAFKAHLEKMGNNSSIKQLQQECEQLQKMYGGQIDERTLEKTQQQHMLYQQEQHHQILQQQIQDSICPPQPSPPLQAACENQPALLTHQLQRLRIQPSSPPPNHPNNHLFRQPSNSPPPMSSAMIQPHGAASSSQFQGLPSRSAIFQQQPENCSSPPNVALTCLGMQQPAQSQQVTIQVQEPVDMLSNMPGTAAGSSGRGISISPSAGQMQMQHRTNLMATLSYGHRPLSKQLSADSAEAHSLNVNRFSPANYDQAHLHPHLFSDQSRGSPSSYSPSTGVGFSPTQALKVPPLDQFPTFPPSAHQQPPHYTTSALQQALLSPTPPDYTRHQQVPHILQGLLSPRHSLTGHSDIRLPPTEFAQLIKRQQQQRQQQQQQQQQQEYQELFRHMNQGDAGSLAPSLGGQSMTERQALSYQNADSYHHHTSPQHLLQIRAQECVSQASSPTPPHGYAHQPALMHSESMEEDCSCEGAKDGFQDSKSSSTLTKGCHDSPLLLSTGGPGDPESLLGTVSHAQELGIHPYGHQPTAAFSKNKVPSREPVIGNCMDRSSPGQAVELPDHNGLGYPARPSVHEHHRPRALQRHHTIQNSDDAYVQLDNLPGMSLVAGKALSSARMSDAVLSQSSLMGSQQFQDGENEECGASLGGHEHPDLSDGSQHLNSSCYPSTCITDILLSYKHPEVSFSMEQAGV

RIOK2 = RIOK2 (Homo sapiens, UniProt Q9BVS4)
[1] = biological target: T5, RSK4(Kin.Dom.1-N-terminal) (Homo sapiens, UniProt Q9UK32)
T5 construct: gene RPS6KA6; Kin.Dom.1-N-terminal
T5 sequence (Q9UK32 whole entry): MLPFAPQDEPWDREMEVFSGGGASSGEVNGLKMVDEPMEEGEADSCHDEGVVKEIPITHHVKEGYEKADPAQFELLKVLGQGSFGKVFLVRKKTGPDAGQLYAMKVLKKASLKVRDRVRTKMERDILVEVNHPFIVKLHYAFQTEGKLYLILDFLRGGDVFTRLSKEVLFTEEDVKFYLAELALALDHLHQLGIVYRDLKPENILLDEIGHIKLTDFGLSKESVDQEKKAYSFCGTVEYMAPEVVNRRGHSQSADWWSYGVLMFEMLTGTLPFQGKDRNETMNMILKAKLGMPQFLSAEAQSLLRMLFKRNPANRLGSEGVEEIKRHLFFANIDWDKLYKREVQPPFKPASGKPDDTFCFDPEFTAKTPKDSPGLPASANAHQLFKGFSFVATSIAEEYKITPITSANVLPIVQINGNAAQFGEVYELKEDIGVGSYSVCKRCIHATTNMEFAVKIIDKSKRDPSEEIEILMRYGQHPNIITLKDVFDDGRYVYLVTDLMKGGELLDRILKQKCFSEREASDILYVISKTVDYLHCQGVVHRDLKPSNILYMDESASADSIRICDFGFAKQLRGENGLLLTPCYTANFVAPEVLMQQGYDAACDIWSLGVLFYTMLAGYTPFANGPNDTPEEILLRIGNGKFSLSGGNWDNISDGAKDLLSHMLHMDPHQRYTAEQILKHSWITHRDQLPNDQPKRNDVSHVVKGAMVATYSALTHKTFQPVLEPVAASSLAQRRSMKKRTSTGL

[2] = read-out: Niraparib (MK-4827) / %Ctrl @ 10000nM
[3] = read-out: Rucaparib / %Ctrl @ 10000nM, binding competition, % of control
[4] = read-out: Olaparib / %Ctrl @ 10000nM
[5] = read-out: Talazoparib (BMN 673) / %Ctrl @ 10000nM

Structure (SMILES): NC(=O)c1cccc2cn(-c3ccc([C@@H]4CCCNC4)cc3)nc12 [Niraparib]
percent of control binding at 10 µM (EGFR(L858R); [2]): 70%
percent of control binding at 10 µM (EPHB3; [2]): 82%
percent of control binding at 10 µM (ICK; [2]): 63%
percent of control binding at 10 µM (MYLK2; [2]): 92%
percent of control binding at 10 µM (PIK3CA(E545A); [2]): 98%
percent of control binding at 10 µM (PIK4CB; [2]): 94%
percent of control binding at 10 µM (QSK; [2]): 93%
percent of control binding at 10 µM (RIOK2; [2]): 67%
percent of control binding at 10 µM [1, 2]: 100%

percent of control binding at 10 µM (EGFR(L858R); [3]): 96%
percent of control binding at 10 µM (EPHB3; [3]): 99%
percent of control binding at 10 µM (ICK; [3]): 64%
percent of control binding at 10 µM (MYLK2; [3]): 74%
percent of control binding at 10 µM (PIK3CA(E545A); [3]): 85%
percent of control binding at 10 µM (PIK4CB; [3]): 78%
percent of control binding at 10 µM (QSK; [3]): 77%
percent of control binding at 10 µM (RIOK2; [3]): 69%
percent of control binding at 10 µM [1, 3]: 63%
Structure (SMILES): CNCc1ccc(-c2[nH]c3cc(F)cc4c3c2CCNC4=O)cc1 [Rucaparib]

percent of control binding at 10 µM (EGFR(L858R); [4]): 92%
percent of control binding at 10 µM (EPHB3; [4]): 87%
percent of control binding at 10 µM (ICK; [4]): 92%
percent of control binding at 10 µM (MYLK2; [4]): 100%
percent of control binding at 10 µM (PIK3CA(E545A); [4]): 90%
percent of control binding at 10 µM (PIK4CB; [4]): 94%
percent of control binding at 10 µM (QSK; [4]): 83%
percent of control binding at 10 µM (RIOK2; [4]): 84%
percent of control binding at 10 µM [1, 4]: 76%
Structure (SMILES): O=C(c1cc(Cc2n[nH]c(=O)c3ccccc23)ccc1F)N1CCN(C(=O)C2CC2)CC1 [Olaparib]

percent of control binding at 10 µM (EGFR(L858R); [5]): 97%
percent of control binding at 10 µM (EPHB3; [5]): 100%
percent of control binding at 10 µM (ICK; [5]): 71%
percent of control binding at 10 µM (MYLK2; [5]): 100%
percent of control binding at 10 µM (PIK3CA(E545A); [5]): 73%
percent of control binding at 10 µM (PIK4CB; [5]): 81%
percent of control binding at 10 µM (QSK; [5]): 75%
percent of control binding at 10 µM (RIOK2; [5]): 100%
percent of control binding at 10 µM [1, 5]: 99%
Structure (SMILES): Cn1ncnc1[C@H]1c2n[nH]c(=O)c3cc(F)cc(c23)N[C@@H]1c1ccc(F)cc1 [Talazoparib]
